Results as given in patent US20060069163A1, “Method for treating Alzheimer's disease” (Pfizer Inc, priority 2000, published 2006).
Entries after “also recorded” stand apart in the source; their conditions may differ.

System: β-amyloid peptide (Aβ) synthesized by β APP-CHO cells
Assay: Aβ production in βAPP-CHO cells, sandwich ELISA
Assay type: cell-based, Chinese hamster
Conditions: CHO cells overexpressing human βAPP, test compounds added at various dose concentrations to the medium, FIG. 5 and FIG. 6
Description: This experiment was designed to determine the ability of lipid regulating agents to alter the production of β-amyloid peptide (Aβ) in cultured cells, and their consequent activity in preventing and treating Alzheimer's Disease.
Chinese hamster ovary (CHO) cells were stably transfected with a construct to enable the overexpression of the human β-amyloid precursor protein (βAPP) gene to cause increased production of Aβ. The measurement of Aβ synthesized by these β APP-CHO cells was done using a standard sandwich ELISA assay, employing well-characterized antibodies to the N-terminus (6E10) and middle (4G8) of Aβ. This assay is routinely used to measure Aβ in tissues, body fluids, and cell culture media. Cultures of β APP-CHO cells were grown to near confluency, and then the test compounds were added at various dose concentrations to the cell medium.

Structure (SMILES)	reduction in Aβ	reduction in Aβ (listed as Mevastatin)
CC(C)c1cc(C(C)C)c(CC(=O)NS(=O)(=O)Oc2c(C(C)C)cccc2C(C)C)c(C(C)C)c1 [Avasimibe]	substantial dose-dependent reduction	
Cc1ccc(C)c(OCCCC(C)(C)C(=O)O)c1 [CI-719, gemfibrozil]	only moderate changes	
CC(C)(CCCCOCCCCC(C)(C)C(=O)O)C(=O)O [CI-1027]	only moderate changes	
c1coc(CSC2=NCCS2)c1 [PD 69405]	only moderate changes	
CC[C@H](C)C(=O)O[C@H]1C[C@@H](C)C=C2C=C[C@H](C)[C@H](CC[C@@H]3C[C@@H](O)CC(=O)O3)[C@H]21 [lovastatin]	dose-dependent inhibition; also recorded: dramatic dose-dependent reduction	
CC[C@H](C)C(=O)O[C@H]1CCC=C2C=C[C@H](C)[C@H](CC[C@@H]3C[C@@H](O)CC(=O)O3)[C@H]21 [mevastatin]	dose-dependent inhibition	dramatic dose-dependent reduction
